In US20240091203A1, “METHODS FOR TREATING NON-OBSTRUCTIVE HYPERTROPHIC CARDIOMYOPATHY” (Cytokinetics, Incorporated, priority 2022, published 2024):
“Also recorded” adds a separate entry of the source. Where two headings read alike, the source gives them in different places.

Experiments:
[1] = Phase 1 plasma pharmacokinetics, CYP2D6 poor metabolizer cohort; assay type: in vivo, human; settings: single 10 mg
Description: CYP2D6 poor metabolizer cohort.
(§1) CYP2D6 genotypes were determined at screening for all study participants; those identified as CYP2D6-PMs were excluded from the SAD and MAD cohorts but were invited to participate in the CYP2D6-PM cohort. The first individual in the CYP2D6-PM cohort was dosed after the SAD 25-mg cohort (FIG. 2). […] Nine participants were randomized (7:2) with a sentinel dosing group consisting of the first 2 participants treated.
Pharmacokinetic analyses. For all study groups, blood samples for PK assessment were obtained pre-dose, up to 12 times daily on day 1, and then at regular intervals throughout the study. Blood samples were collected according to the following schedule: SAD Cohorts: Day 1: pre-dose and 0.25, 0.5, 1, 1.5, 2, 2.5, 3, 4, 6, 8, 12, 16, 24, 36, 48, 72, 96, and 216 h post dose. MAD Cohorts (14-day Dosing): Day 1: pre-dose and 0.25, 0.5, 1, 1.5, 2, 2.5, 3, 4, 6, 8, and 12 h post dose; Days 2, 4, 5, 6, and 9: pre-dose (corresponding to trough samples following dosing on days 1, 3, 4, 5, and 8) and 1.5 h post dose; Days 3, 7, 8, 10, 11, 12, and 13: pre-dose (corresponding to trough samples following dosing on days 2, 6, 7, 9, 10, 11, and 12); Day 14: pre-dose and 0.25, 0.5, 1.5, 2, 2.5, 3, 4, 6, 8, 12, 16, 24, 36, 48, 72, and 168 h post dose. MAD Cohort (17-Day Dosing): Day 1: pre-dose and 0.25, 0.5, 1, 1.5, 2, 2.5, 3, 4, 6, 8, and 12 h post dose; Days 2, 4, 5, 6, and 9: pre-dose (corresponding to trough samples following dosing on days 1, 3, 4, 5, and 8) and 1.5 h post dose; Days 3, 7, 8, 10, 11, 12, 13, 14, 15, and 16: pre-dose (corresponding to trough samples following dosing on days 2, 6, 7, 9, 10, 11, and 12); Day 17: pre-dose and 0.25, 0.5, 1.5, 2, 2.5, 3, 5, 7, 9, 12, 24, 36, 48, 72, and 168 h post dose. CYPD6-PM Cohort: Day 1: pre-dose and 0.25, 0.5, 1, 1.5, 2, 2.5, 3, 4, 6, 8, 12, 16, 24, 36, 48, 72, 96, 216, 312, and 552 h post dose. Food-Effect Cohort: Day 1: pre-dose and 0.25, 0.5, 1, 1.5, 2, 2.5, 3, 4, 6, 8, 12, 16, 24, 36, 48, 72, 96, 144, and 216 h post dose. Standard non-compartmental methods were used to calculate PK parameters using Phoenix® WinNonlin® Version 7.0; actual sample collection times were utilized.

healthy adults = tested on: healthy adults; parameters: species or system human; settings: in vivo
Excerpt: Study Overview and Ethics. The study used a randomized, placebo-controlled, single-ascending dose (SAD) and multiple-ascending dose (MAD) design (FIG. 2). […] Dose escalation was to be stopped when this range was achieved, or when a non-tolerated dose was identified, if earlier.
Participants and Treatments. To be eligible for this study, participants were to be healthy adults aged 18 to 55 years, with body mass index of 18.0 to 32.0 kg/m^2, normal electrocardiogram (ECG) and clinical laboratory values, or only minor abnormalities that were deemed not clinically significant. Participants also had to have normal cardiac structure and function, with LVEF ≥60% for the first 4 SAD cohorts, ≥65% for subsequent SAD cohorts, all MAD cohorts, and the food-effect cohort, and ≥55% for the CYP2D6-PM cohort. Before the study, participants were not allowed to use any prescription medication within 14 days, over-the-counter medication within 7 days (except acetaminophen), or tobacco or nicotine within 3 months; in addition, they were not permitted to consume alcohol, caffeine, or grapefruit within 48 h before study check-in.
A randomization schedule was centrally generated for each cohort and treatment period. […] Study drug was administered following an overnight fast, except during the fed period in the food-effect cohort.
Single-ascending dose (SAD) cohorts. The SAD portion of the study used a randomized, double-blind, placebo-controlled, sequential, escalating-dose design, in which participants received single-ascending oral doses of the study drug. Seven cohorts were dosed in sequence (FIG. 2).
Recommendations regarding dose escalation in the SAD cohorts—and in the MAD cohorts described below—were made by the treating investigator (who was blinded to treatment group) and endorsed or not by the Dose Level Review Committee (DLRC), who were unblinded. […] Criteria for escalation included that no more than 2 participants in a dose group developed an LVEF <50% and no individual developed an LVEF <45%.
Multiple-ascending dose (MAD) cohorts. The MAD cohorts also used a randomized, double-blind, placebo-controlled, sequential design.
as §1
Food-effect cohort. […] Participants were randomized in a 1:1 ratio to 1 of 2 sequences: fasted/fed or fed/fasted.
Safety and tolerability. Safety was assessed by the incidence of adverse events (AEs) and by incidence of reduced LVEF. Treatment-emergent AEs (TEAE) were defined as AEs that began or increased after study drug administration. All AEs were coded using the Medical Dictionary for Regulatory Activities version 21.1 and graded using the National Cancer Institute Common Terminology Criteria for AEs (version 4.03) 5-point severity scale. Each AE was judged as either related or unrelated to the study drug by the treating investigator. Clinical laboratory tests were obtained at regular intervals in all cohorts.
For safety monitoring, participants in all cohorts had periodic echocardiograms, which were assessed by a cardiologist. In the SAD and MAD cohorts, echocardiograms were also reviewed by an echocardiography core laboratory for PD assessments, as described below. In addition, participants in all cohorts were monitored with continuous 12-lead ECG recording using Holter monitors. For safety monitoring, a single 12-lead ECG was extracted at screening, pre-dose, and periodically throughout follow-up, and interpreted by the investigator. […]

[2] = CYP2D6 poor metabolizers, geometric mean, n = 7
[3] = CYP2D6 poor metabolizers, mean ± SD, n = 7

CCc1nc(-c2ccc3c(c2)CC[C@H]3NC(=O)c2cnn(C)c2)no1 [aficamten, (R)—N-(5-(5-ethyl-1,2,4-oxadiazol-3-yl)-2,3-dihydro-1H-inden-1-yl)-1-methyl-1H-pyrazole-4-carboxamide]
AUC24 [1, 2]: 495 ng·h/mL | AUCinf [1, 2]: 2966 ng·h/mL | Cmax [1, 2]: 57.3 ng/mL | CL/F [1, 3]: 3.6 ± 1.4 L/h | t1/2 [1, 3]: 110 h | impact of CYP2D6-PM phenotype on pharmacokinetics ([1]; versus extensive metabolizers): Neither food nor CYP2D6-PM phenotype had a clinically meaningful impact; also recorded: did not appear to have reduced clearance | Echocardiogram-related AE of decreased ejection fraction <45%: Onset (time after drug dose) (healthy adults; female, human): 1.4 h | QTcF (healthy adults; human): ≤ 450 ms | increase in QTcF interval (healthy adults; human): ≤ 30 ms | participants with echocardiogram-related AEs of decreased ejection fraction <45% (healthy adults; human): 3 participants | time to resolution of echocardiogram-related AEs of decreased ejection fraction (healthy adults; human): 2.5 to 4.6 h | LVEF of 1 participant after cohort expansion (healthy adults): < 45% | decrease in LVEF of 1 participant after cohort expansion (healthy adults): > 15% | discontinuation of the study due to AEs (healthy adults): no participants discontinued | mean safety ECG parameters (healthy adults): within normal limits | post-dose LVEF of sentinel participant (healthy adults): < 45% | post-dose LVEF of the participant with LVEF <50% (healthy adults): 46.2% | serum chemistry, hematology, or urinalysis findings (healthy adults): No clinically significant | vital signs (healthy adults): within normal limits | Echocardiogram-related AE of decreased ejection fraction <45%: Onset (time after drug dose) (healthy adults; male, human): 1.5 h
